The source of these data is patent EP4060021A1, “MIMETIC MICROBIOLOGICAL CULTURE MEDIUM AND USES THEREOF” (BIOFILM PHARMA, priority 2021, dated 2022).

The experiment has as its system S. aureus. Put plainly: Clinical outcome of the prescribed antibiotic therapy (presence/absence of S. aureus in a second sample at end of first-line treatment). Format: in vivo, patients diabétiques. From the text: • La Figure 1 représente des courbes de croissance de bactéries en fonction du milieu de culture. Sur cette figure, les ordonnées correspondent au logarithme d'unités formant colonie par millilitre de milieu de culture (Log UFC/ml) et les abscisses, au temps en heure (H). La Figure 1A représente les courbes correspondant à la croissance de 2 souches de S. aureus, Newman (gauche) et SAC1 (droite), dans le milieu BHI (courbe avec indicateurs ronds) et un exemple de milieu selon l'invention (MP) (courbe avec indicateurs carrés). La Figure 1B représente les courbes correspondant à la croissance de 2 souches de P. aeruginosa, PAO1 (gauche) et PAC1 (droite), dans le milieu BHI (courbe avec indicateurs ronds) et un exemple de milieu selon l'invention (MP) (courbe avec indicateurs carrés). La Figure 1C représente les courbes correspondant à la croissance de 2 souches cliniques S. aureus SAC1 et P. aeruginosa PAC1, en coculture dans le milieu BHI (P. aeruginosa BHI ou S. aureus BHI) et un exemple de milieu selon l'invention (MP) (P. aeruginosa MP ou S. aureus MP). La mesure de différence significative, réalisée par le test de Student, entre les valeurs d'UFC/mL est exprimée, soit par (***) qui correspond à une p-value <0,001, soit par (**) qui correspond à une p-value <0,01. • La Figure 2 représente les résultats obtenus d'une détermination de l'adhésion et de la formation de biofilm par dénombrement à 24h. Sur cette figure, les ordonnées correspondent au logarithme d'unités formant colonie par millilitre de milieu de culture (Log UFC/ml). La Figure 2A représente un histogramme ou diagramme en bâton du nombre de bactéries dénombrées suite à des cultures séparées de souche S. aureus Newman (Newman), S. aureus SAC1 (SAC 1), P. aeruginosa PAO1 (PAO1) ou P. aeruginosa PAC1 (PAC1), pendant 24H dans un milieu BHI (BHI) (bâtons noirs) ou dans un exemple de milieu selon l'invention (MP) (bâtons gris). La Figure 2B montre sous forme d'histogramme le nombre de bactéries dénombrées suite à des co-cultures des souches de référence S. aureus Newman et P. aeruginosa PAO1 (PAO1/Newman), ainsi que du couple de souches cliniques S. aureus SAC1 et P. aeruginosa PAC1 (PAC 1/SAC1), pendant 24H dans un milieu BHI (BHI) (bâtons noirs) ou dans un exemple de milieu selon l'invention (MP) (bâtons gris). La mesure de différence significative, réalisée par le test de Student, entre les valeurs d'UFC est exprimée, soit par (***) qui correspond à une p-value <0,001, soit par (**) qui correspond à une p-value <0,01. • La Figure 3 représente les résultats obtenus d'une détermination de sensibilité à des antibiotiques de souches cliniques de S. aureus issues d'infections de plaies du pied chez le diabétique. Les données cliniques, anonymisées, nécessaires à l'interprétation des résultats, consistaient en l'antibiothérapie donnée au patient, ainsi que la qualification par les médecins hospitaliers d'un succès ou échec thérapeutique. La définition de succès ou échec thérapeutique est définie comme suit. Le patient commence et suit l'antibiothérapie prescrite et un deuxième prélèvement microbiologique est effectué lors du dernier jour de traitement de la 1ère antibiothérapie (± 2 jours). Ce prélèvement est utilisé pour déterminer la présence/absence du pathogène ciblé par l'antibiothérapie, S. aureus. Si ce prélèvement a montré la persistance d'un S. aureus, l'antibiothérapie est en échec. A l'inverse, en cas d'absence de S. aureus, l'antibiothérapie est associée à un succès thérapeutique. Les antibiogrammes ont été réalisés classiquement sur une durée de 18h ± 2h en accord avec les recommandations de l'EUCAST. Une gamme de l'antibiotique à tester a été réalisée. • La Figure 3A montre sous forme d'histogramme les résultats des CMI déduites d'antibiogrammes sur 11 souches testées en présence d'amoxicilline / clavulanate de potassium (commercialisé par exemple sous le nom d'Augmentin (marque déposée)). […]

Turning to `CCC[C@@H]1C[C@@H](C(=O)N[C@@H]([C@H]2O[C@H](SC)[C@H](O)[C@@H](O)[C@H]2O)[C@H](C)Cl)N(C)C1` [clindamycine], the “Succès ou échec thérapeutique” value is given as “Succès” (souche C01P009); “Echec” (souche C01P010); “Succès” (souche C03P003); “Succès” (souche C03P004); “Echec” (souche C03P005); “Succès” (souche C03P009).
In the case of “amoxicilline / clavulanate de potassium [amoxicilline/clavulanate de potassium]”, the “Succès ou échec thérapeutique” value was “Succès” (souche C01P012); “Succès” (souche C03P001); “Echec” (souche C03P008); “Succès” (souche C04P003); “Succès” (souche C04P005f); “Succès” (souche C04P005i). In addition, the “Succès ou échec thérapeutique” value reads like this: (souche C04P007) “Echec”; (souche C06P001f) “Echec”; (souche C06P001 i) “Echec”; (souche C06P003f) “Echec”; (souche C06P003i) “Echec”.
Turning to cotrimoxazole, the “Succès ou échec thérapeutique” value is, setting by setting: (souche C01P0 01) “Echec”; (souche C01P0 11) “Succès”; (souche C03P0 02) “Echec”; (souche C03P0 07) “Echec”.
